Tested on: OVCAR8
Test: cancer cell viability relative to untreated control; higher = less cytotoxic
Conditions: 72 h
Method: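 KURAMOCHI or OVCAR8 cells were grown in monoculture or in co-culture with WI38 or patient-derived 030F fibroblasts and treated for 72 h with a dose matrix of carboplatin combined with birinapant or vorinostat (doses in nM). Cancer cell viability was measured by CK8/18 immunofluorescence imaging and expressed as % of untreated control, given as mean with SD.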

O=C(O)C1(C(=O)O)CCC1.[NH2-].[NH2-].[Pt+2] [Carboplatin] + CC[C@H](NC(=O)[C@H](C)NC)C(=O)N1C[C@@H](O)C[C@H]1Cc1c(-c2[nH]c3cc(F)ccc3c2C[C@@H]2C[C@H](O)CN2C(=O)[C@H](CC)NC(=O)[C@H](C)NC)[nH]c2cc(F)ccc12 [Birinapant]
cancer cell viability [%]
Conditions	partner drug concentration 0 nM	partner drug concentration 0.1 nM	partner drug concentration 1 nM	partner drug concentration 10 nM	partner drug concentration 100 nM	partner drug concentration 1000 nM
carboplatin concentration 10 nM, co-cultured fibroblast: 030F	95.9	93.4	86.9	85.6	53.2	11.3
carboplatin concentration 10 nM, co-cultured fibroblast: WI38	112	112	98.5	99.2	59.9	9.28
carboplatin concentration 10 nM, co-cultured fibroblast: none (monoculture)	100	107	102	96.1	68.1	14.5
carboplatin concentration 100 nM, co-cultured fibroblast: 030F	97.7	89.9	85.8	92.3	46	12.3
carboplatin concentration 100 nM, co-cultured fibroblast: WI38	103	101	102	98.1	52.4	10.8
carboplatin concentration 100 nM, co-cultured fibroblast: none (monoculture)	101	99.5	101	103	71.7	13.4
carboplatin concentration 1000 nM, co-cultured fibroblast: 030F	96.9	83.5	90.8	96.9	50.5	14.7
carboplatin concentration 1000 nM, co-cultured fibroblast: WI38	107	98.1	104	92.6	56.6	9.2
carboplatin concentration 1000 nM, co-cultured fibroblast: none (monoculture)	101	102	98.6	105	79.7	16.3
carboplatin concentration 1e+05 nM, co-cultured fibroblast: 030F	23.2	34.9	41.2	34.2	15.9	8.74
carboplatin concentration 1e+05 nM, co-cultured fibroblast: WI38	10.6	36.2	51.3	40.3	21.4	3
carboplatin concentration 1e+05 nM, co-cultured fibroblast: none (monoculture)	23.1	61	58.4	60.6	46.2	6.42
carboplatin concentration 10000 nM, co-cultured fibroblast: 030F	52.3	72.4	90.8	85.1	34.3	9.13
carboplatin concentration 10000 nM, co-cultured fibroblast: WI38	41.6	82.3	89.1	95.9	49.7	7.2
carboplatin concentration 10000 nM, co-cultured fibroblast: none (monoculture)	56.5	90.3	92.5	100	64.8	12.6

O=C(O)C1(C(=O)O)CCC1.[NH2-].[NH2-].[Pt+2] [Carboplatin] + O=C(CCCCCCC(=O)Nc1ccccc1)NO [Vorinostat]
cancer cell viability [%]
Conditions	partner drug concentration 0 nM	partner drug concentration 1 nM	partner drug concentration 10 nM	partner drug concentration 100 nM	partner drug concentration 1000 nM	partner drug concentration 10000 nM
carboplatin concentration 10 nM, co-cultured fibroblast: 030F	95.9	98.7	97.7	61.9	16.7	1.47
carboplatin concentration 10 nM, co-cultured fibroblast: WI38	112	95.4	93.8	57.2	13	-0.353
carboplatin concentration 10 nM, co-cultured fibroblast: none (monoculture)	100	118	106	77.6	12.5	-1.11
carboplatin concentration 100 nM, co-cultured fibroblast: 030F	97.7	88.3	82.6	53.7	17.5	0.669
carboplatin concentration 100 nM, co-cultured fibroblast: WI38	103	98.1	88.4	53.3	11.5	-0.268
carboplatin concentration 100 nM, co-cultured fibroblast: none (monoculture)	101	108	109	58.4	20.6	-0.748
carboplatin concentration 1000 nM, co-cultured fibroblast: 030F	96.9	93	94.1	50.7	15.3	1.7
carboplatin concentration 1000 nM, co-cultured fibroblast: WI38	107	96.1	86	45.4	14.6	-0.251
carboplatin concentration 1000 nM, co-cultured fibroblast: none (monoculture)	101	111	102	63.4	17.2	-1.67
carboplatin concentration 1e+05 nM, co-cultured fibroblast: 030F	23.2	30.2	32.9	22.8	15.3	0.46
carboplatin concentration 1e+05 nM, co-cultured fibroblast: WI38	10.6	34.2	33.1	22.9	13.3	-0.83
carboplatin concentration 1e+05 nM, co-cultured fibroblast: none (monoculture)	23.1	57.5	51.6	24.6	17.1	-3.4
carboplatin concentration 10000 nM, co-cultured fibroblast: 030F	52.3	78.3	64.7	37.2	19.1	1.01
carboplatin concentration 10000 nM, co-cultured fibroblast: WI38	41.6	74.9	68.8	47.1	19	-0.481
carboplatin concentration 10000 nM, co-cultured fibroblast: none (monoculture)	56.5	89.7	89.7	65.2	26.8	-0.768
